Laboratory results as given in patent US9028879B2, “Chromium complexes as enhancers of brain glucose transporters” (JDS Therapeutics, LLC, priority 2009, dated 2015).
Marks after values point to notes of the source that are not given here.

How the values were obtained:
[1] = Serum and brain chromium levels in high fat diet rats
Description: (§1) Briefly, insulin resistance and hyperglycemia were induced in male Wistar rats by feeding a high fat diet (HFD, 40% of calories as fat). A healthy control group received a standard diet (12% of calories as fat). Rats were fed their diets throughout the 12 week study.
(§2) Rats (10/group) were divided into groups: healthy control (Control), HFD, and HFD+CrHis. Chromium (Cr) treated rats were fed CrHis (110 mcg/kg body wt/d). Cr treatment started at the beginning of the study and was continued for 12 weeks. […] Body weight, serum chromium levels, and blood glucose levels were also measured.

[2] = Body weight and blood glucose in high fat diet rats; format: in vivo, male Wistar rats
Description: as §1, §2

[3] = system: subject having GLUT1 deficiency syndrome; test: Example 3: treatment of subject with GLUT1 deficiency syndrome; format: in vivo; settings: 50 μg to 5000 μg/day, orally, after a period of time
Description: A subject is identified as having GLUT1 deficiency syndrome. The subject presents with one or more symptoms associated with GLUT1 deficiency syndrome such as the presence of a SLC2A1 mutation, neurological problems associated with GLUT1 deficiency such as stiffness caused by abnormal tensing of the muscles (spasticity), difficulty in coordinating movements (ataxia), and speech difficulties (dysarthria). The subject can experience episodes of confusion, lack of energy (lethargy), headaches, muscle twitches (myoclonus), or involuntary irregular eye movements, particularly before meals.
The subject is administered between 50 μg and 5000 μg chromium histidinate, chromium picolinate, or chromium histidinate/chromium picolinate combination complex/day. The chromium histidinate is administered orally.

[4] = reported (Kaats 1998; Cefalu 1999); cited from earlier work
[5] = system: subject having Alzheimer's disease; test: Example 5: treatment of subject with Alzheimer's disease with standard therapeutics; format: in vivo; settings: 50 μg to 5000 μg chromium orally with standard therapeutics, over a period of five days
[6] = system: subject having Parkinson's disease; test: Example 6: treatment of subject with Parkinson's disease; format: in vivo; settings: 50 μg to 5000 μg, orally, over time
Procedure: A subject is identified as having Parkinson's disease by conventional methods.
The subject is administered between 50 μg and 5000 μg chromium polyhistidinate. The chromium is administered orally.

[7] = HFD rats, CrHis 110 mcg/kg body wt/d, 12 weeks, mean ± s.e.m.
[8] = compared to the high fat diet alone

Substance | Brain Chromium ([1]; HFD rats, CrHis 110 mcg/kg body wt/d, 12 weeks, brain tissue homogenates, mean ± s.e.m.) | Serum Chromium [1, 7] | brain chromium levels, change [1, 8] | serum chromium levels, change [1, 8] | Blood Glucose [2, 7] | Body Weight [2, 7] | blood glucose levels, change [2, 8] | body weight, change [2, 8] | symptoms of GLUT1 deficiency [3] | weight loss and changes in body composition [4] | subject's condition, as assessed by one or more symptoms of the disease [5] | subject's condition, as assessed by one or more symptoms of the disease [6]
chromium histidinate [CrHis] | 17.7 ± 0.2^c ng/g | 22.0 ± 0.6^c ng/g | significantly increased | significantly increased | 116.4 ± 2.1^c mg/dL | 315.1 ± 1.9^c g | decreased | decreased | reduction in one or more of the symptoms |  |  | 
chromium picolinate |  |  |  |  |  |  |  |  | reduction in one or more of the symptoms | modest weight loss | does not worsen or improves | 
chromium polyhistidinate |  |  |  |  |  |  |  |  |  |  |  | does not worsen or improves
